Consider one compound from ChEMBL document CHEMBL1141234, “Synthesis and SAR of highly potent dual 5-HT1A and 5-HT1B antagonists as potential antidepressant drugs” (Bioorg Med Chem Lett, 2005).

For experiment [1], the target named is 5-hydroxytryptamine receptor 7 (Homo sapiens, UniProt P34969). In words: Inhibitory activity against 5HT7 receptor.
Experiment [2] deals with T1, 5-hydroxytryptamine receptor 1B (Homo sapiens, UniProt P28222). In words: Functional activity in FLIPR assay for 5HT1B receptor. The note with it: filed as antagonist.
T1 sequence (P28222 whole entry): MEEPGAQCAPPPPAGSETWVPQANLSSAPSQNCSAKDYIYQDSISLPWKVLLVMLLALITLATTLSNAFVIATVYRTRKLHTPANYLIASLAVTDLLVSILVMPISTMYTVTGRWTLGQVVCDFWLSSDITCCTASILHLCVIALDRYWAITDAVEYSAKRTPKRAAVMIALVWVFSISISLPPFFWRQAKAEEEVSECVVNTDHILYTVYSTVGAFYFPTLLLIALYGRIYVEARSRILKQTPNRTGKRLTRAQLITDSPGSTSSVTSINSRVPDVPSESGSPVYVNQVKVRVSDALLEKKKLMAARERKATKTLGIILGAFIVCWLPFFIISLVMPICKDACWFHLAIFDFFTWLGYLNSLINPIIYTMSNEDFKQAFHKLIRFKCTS
The target in experiment [3] is 5-hydroxytryptamine receptor 1B (Rattus norvegicus, UniProt P28564). Briefly: Binding affinity for rat 5HT1B receptor.
Chain of 5-hydroxytryptamine receptor 1B (Rattus norvegicus, UniProt P28564) (P28564 whole entry): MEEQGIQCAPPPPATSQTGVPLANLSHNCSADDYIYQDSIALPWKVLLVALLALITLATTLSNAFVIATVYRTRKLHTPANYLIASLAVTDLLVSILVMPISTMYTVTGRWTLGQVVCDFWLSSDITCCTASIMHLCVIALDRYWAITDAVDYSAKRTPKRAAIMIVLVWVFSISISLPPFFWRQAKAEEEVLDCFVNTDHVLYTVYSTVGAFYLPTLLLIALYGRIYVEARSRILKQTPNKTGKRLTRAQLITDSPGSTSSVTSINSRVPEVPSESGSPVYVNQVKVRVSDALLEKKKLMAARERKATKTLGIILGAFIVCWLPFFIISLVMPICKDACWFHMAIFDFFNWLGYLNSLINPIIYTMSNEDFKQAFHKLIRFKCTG
Experiment [4] deals with T1, 5-hydroxytryptamine receptor 1B. Briefly: Inhibitory activity against human recombinant 5HT1B receptor co-expressed with G-protein chimera Gqo5 in HEK293 cells by FLIPR. Format: functional, cell-based.
Experiment [5] shares this target. Briefly: Intrinsic activity for 5HT1B receptor in FLIPR assay. Format: functional.
In experiment [6] the target is T2, 5-hydroxytryptamine receptor 2C (Homo sapiens, UniProt P28335).
T2 sequence (P28335 whole entry): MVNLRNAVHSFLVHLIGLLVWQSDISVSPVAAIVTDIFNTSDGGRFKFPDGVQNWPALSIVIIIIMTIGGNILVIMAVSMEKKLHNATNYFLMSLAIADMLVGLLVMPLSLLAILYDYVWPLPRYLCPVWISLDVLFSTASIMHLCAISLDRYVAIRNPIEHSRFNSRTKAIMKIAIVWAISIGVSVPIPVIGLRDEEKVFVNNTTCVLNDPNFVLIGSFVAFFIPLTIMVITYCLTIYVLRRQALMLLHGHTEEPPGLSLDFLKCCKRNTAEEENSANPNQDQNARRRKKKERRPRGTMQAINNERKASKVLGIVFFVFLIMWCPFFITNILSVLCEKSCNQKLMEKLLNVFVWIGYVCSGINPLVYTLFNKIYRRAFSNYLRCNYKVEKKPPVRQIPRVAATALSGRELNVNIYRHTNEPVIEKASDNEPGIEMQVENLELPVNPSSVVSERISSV
Briefly: Inhibitory activity against 5HT2C receptor.

For experiment [7], the target named is Sodium-dependent noradrenaline transporter (Homo sapiens) (UniProt P23975). Briefly: Inhibitory activity against NET upto 10 uM.
Chain of Sodium-dependent noradrenaline transporter (Homo sapiens) (P23975 whole entry): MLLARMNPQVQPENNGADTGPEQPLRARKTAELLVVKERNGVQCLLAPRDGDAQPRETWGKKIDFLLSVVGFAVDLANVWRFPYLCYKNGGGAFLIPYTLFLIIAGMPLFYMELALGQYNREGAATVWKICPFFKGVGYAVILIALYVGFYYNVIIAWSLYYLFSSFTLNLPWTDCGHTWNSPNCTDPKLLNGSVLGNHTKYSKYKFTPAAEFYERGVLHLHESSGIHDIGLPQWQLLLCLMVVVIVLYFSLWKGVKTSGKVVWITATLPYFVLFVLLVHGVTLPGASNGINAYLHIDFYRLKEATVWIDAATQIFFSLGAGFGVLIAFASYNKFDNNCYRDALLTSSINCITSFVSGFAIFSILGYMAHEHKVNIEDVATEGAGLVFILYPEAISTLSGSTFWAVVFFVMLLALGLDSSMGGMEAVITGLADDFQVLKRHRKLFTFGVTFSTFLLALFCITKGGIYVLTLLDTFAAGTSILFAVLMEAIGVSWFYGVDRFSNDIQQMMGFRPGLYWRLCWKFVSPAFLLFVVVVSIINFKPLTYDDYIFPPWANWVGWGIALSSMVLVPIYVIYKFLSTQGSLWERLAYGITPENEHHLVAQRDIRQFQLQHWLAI
The target in experiment [8] is Sodium-dependent dopamine transporter (Homo sapiens) (UniProt Q01959). In words: Inhibitory activity against DAT upto 10 uM.
Chain of Sodium-dependent dopamine transporter (Homo sapiens) (Q01959 whole entry): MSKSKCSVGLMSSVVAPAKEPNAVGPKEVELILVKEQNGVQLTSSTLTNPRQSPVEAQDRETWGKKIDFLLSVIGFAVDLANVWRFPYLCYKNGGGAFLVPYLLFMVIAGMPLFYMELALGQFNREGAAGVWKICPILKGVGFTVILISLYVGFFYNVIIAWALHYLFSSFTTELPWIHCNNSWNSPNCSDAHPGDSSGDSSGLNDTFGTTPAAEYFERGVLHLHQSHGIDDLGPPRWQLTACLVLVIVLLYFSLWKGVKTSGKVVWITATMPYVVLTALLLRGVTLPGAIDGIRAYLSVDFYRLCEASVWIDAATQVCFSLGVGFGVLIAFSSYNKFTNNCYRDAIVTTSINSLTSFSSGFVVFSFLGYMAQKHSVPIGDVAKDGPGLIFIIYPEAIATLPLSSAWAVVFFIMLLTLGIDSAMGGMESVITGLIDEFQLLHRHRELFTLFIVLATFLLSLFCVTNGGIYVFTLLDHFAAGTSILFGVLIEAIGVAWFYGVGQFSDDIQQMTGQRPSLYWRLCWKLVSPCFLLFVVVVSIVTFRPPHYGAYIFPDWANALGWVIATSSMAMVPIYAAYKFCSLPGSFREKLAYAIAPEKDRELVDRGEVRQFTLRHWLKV
For experiment [9], the target named is T3, 5-hydroxytryptamine receptor 1A (Homo sapiens) (UniProt P08908).
T3 sequence (whole entry): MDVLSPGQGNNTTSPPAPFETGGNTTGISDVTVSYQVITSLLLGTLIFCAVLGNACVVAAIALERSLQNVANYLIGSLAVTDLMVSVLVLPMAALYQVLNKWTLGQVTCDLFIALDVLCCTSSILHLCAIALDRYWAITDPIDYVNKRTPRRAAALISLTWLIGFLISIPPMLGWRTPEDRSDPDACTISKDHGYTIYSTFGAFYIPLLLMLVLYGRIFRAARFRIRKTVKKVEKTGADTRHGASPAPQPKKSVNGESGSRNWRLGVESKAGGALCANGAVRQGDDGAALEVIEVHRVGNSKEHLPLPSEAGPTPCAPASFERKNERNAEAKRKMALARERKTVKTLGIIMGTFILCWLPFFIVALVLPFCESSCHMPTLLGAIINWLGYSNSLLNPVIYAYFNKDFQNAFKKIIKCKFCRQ
In words: Intrinsic activity for 5HT1A receptor in [35S]GTP-gamma-S assay. Format: functional. (Binding of GTPγS marks nucleotide exchange on a G protein.)

Experiment [10] deals with D(3) dopamine receptor (Homo sapiens, UniProt P35462). Briefly: Inhibitory activity against dopamine D3 receptor.
Chain of D(3) dopamine receptor (P35462 whole entry): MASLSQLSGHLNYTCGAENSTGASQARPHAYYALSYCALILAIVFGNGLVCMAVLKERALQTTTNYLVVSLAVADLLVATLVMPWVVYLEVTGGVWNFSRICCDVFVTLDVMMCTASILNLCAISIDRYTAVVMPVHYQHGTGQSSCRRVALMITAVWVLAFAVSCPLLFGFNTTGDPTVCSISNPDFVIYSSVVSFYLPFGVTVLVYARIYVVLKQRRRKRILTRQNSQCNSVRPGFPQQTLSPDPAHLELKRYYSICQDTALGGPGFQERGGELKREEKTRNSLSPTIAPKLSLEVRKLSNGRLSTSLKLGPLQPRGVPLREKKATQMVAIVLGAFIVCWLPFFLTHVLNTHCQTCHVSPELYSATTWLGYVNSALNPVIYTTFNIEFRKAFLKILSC
Experiment [11] addresses Sodium-dependent serotonin transporter (Homo sapiens) (UniProt P31645). In words: Inhibitory activity against SERT upto 10 uM.
For experiment [12], the target named is T4, 5-hydroxytryptamine receptor 1A (Homo sapiens, UniProt P08908).
T4 sequence (P08908 whole entry): T3 sequence (whole entry)
Briefly: Displacement of [35S]GTP-gamma-S from human recombinant 5HT1A receptor. The format is functional. Background: In a radioligand displacement assay an active substance lowers the binding of a labelled ligand.

Experiment [13] concerns the target T3, 5-hydroxytryptamine receptor 1A (Homo sapiens). In words: Functional activity in [35S]GTP-gamma-S assay for 5HT1A receptor. The note with it: filed as antagonist.
Experiment [14] has as its target T5, 5-hydroxytryptamine receptor 1A (Rattus norvegicus, UniProt P19327).
T5 sequence (P19327 whole entry): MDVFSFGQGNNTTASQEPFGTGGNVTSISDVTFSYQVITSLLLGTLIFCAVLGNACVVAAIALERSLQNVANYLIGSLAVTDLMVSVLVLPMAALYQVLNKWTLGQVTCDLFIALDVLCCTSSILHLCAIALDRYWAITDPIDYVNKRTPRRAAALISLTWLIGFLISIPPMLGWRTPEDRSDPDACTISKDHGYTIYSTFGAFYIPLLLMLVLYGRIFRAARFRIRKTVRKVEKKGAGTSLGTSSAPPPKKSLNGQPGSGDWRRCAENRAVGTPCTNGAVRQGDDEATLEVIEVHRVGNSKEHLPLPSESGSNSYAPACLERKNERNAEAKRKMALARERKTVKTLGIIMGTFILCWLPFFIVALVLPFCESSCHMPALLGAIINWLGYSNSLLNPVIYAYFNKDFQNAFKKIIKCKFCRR
In words: Binding affinity for rat 5HT1A receptor.

For experiment [15], the target named is T6, Adrenergic receptor alpha-1 (Homo sapiens, UniProt P35348+P25100+P35368).
T6 sequence (P35348 whole entry): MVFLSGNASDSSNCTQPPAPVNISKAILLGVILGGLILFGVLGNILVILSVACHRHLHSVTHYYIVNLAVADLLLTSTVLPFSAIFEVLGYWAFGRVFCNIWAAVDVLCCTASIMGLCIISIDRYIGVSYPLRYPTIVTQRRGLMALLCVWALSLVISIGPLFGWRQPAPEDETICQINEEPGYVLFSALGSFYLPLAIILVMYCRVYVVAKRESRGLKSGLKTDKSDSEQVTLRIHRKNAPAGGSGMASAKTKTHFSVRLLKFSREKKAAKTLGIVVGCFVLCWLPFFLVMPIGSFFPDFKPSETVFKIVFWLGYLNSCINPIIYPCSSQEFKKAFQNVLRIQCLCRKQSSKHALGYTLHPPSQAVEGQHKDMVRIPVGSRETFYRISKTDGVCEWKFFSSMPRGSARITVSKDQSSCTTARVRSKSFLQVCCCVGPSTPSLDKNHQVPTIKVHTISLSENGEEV
T6 sequence (P25100 whole entry): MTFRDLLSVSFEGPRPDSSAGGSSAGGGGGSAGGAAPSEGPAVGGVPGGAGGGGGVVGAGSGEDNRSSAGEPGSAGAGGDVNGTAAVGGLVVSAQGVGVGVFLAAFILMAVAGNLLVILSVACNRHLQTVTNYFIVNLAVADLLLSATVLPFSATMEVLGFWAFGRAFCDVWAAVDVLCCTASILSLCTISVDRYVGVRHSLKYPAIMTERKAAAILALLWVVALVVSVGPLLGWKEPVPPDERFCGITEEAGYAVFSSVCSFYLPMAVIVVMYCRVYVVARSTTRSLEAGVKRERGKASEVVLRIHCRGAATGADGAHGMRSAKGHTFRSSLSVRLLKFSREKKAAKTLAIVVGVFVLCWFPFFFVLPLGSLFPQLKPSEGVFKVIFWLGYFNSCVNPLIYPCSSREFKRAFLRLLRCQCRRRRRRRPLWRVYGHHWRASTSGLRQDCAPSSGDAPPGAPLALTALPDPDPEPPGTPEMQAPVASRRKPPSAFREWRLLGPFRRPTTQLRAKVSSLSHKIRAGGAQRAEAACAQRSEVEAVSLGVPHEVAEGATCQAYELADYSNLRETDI
T6 sequence (P35368 whole entry): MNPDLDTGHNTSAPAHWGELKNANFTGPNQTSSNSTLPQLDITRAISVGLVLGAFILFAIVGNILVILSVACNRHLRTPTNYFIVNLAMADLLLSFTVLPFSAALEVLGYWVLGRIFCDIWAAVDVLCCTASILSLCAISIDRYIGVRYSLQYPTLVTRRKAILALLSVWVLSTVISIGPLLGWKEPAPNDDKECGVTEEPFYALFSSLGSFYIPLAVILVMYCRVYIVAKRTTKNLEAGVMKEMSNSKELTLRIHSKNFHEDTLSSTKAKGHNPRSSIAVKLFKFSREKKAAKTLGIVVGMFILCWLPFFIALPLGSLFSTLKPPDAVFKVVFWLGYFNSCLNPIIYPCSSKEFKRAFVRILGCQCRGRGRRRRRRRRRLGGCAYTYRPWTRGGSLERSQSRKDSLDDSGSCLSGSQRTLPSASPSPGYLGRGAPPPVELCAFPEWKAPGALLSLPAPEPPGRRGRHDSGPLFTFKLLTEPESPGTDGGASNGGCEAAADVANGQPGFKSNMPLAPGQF
Briefly: Inhibitory activity against Adrenergic alpha-1 receptor. Format: protein assay.

In experiment [16] the target is 5-hydroxytryptamine receptor 5A (Homo sapiens, UniProt P47898). In words: Inhibitory activity against 5HT5A receptor.
Chain of 5-hydroxytryptamine receptor 5A (P47898 whole entry): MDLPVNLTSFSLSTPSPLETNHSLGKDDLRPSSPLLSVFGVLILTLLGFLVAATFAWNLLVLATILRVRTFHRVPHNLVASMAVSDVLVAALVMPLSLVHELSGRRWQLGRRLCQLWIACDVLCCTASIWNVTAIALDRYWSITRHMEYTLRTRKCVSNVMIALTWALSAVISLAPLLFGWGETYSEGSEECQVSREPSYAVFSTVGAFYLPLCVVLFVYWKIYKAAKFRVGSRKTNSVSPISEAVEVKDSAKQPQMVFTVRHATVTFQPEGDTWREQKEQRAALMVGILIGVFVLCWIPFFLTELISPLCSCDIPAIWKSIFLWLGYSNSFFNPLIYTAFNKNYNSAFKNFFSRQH

Active and inactive are the calls of the source. The rule behind the calls is not given here. A value given as a limit tells only on which side of the number the result lay.

As usually defined, the Ki is a measure of affinity in units of concentration, obtained from inhibition or displacement. For orientation: IC50 means the concentration at which inhibition is half-maximal. The term Emax denotes the size of the effect at its maximum, as opposed to the concentration needed.

Chain of Sodium-dependent serotonin transporter (Homo sapiens) (P31645 whole entry, looked up): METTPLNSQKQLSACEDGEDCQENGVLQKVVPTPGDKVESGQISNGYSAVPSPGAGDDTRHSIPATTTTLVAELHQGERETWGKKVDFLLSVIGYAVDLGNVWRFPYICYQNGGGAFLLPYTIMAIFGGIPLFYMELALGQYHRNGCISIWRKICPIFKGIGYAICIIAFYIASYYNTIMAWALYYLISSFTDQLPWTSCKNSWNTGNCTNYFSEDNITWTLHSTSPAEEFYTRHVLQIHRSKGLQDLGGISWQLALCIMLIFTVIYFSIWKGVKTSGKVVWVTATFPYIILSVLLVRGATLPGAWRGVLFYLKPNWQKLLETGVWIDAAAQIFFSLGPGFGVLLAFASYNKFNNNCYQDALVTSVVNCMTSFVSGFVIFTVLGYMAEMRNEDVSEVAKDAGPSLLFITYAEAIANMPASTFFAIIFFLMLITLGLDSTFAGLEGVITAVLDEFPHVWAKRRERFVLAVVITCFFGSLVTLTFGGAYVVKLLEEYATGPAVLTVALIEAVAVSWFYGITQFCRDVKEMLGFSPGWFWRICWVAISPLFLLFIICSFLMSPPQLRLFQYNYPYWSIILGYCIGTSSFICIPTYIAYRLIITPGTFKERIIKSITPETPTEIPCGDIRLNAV
Chain of 5-hydroxytryptamine receptor 7 (P34969 whole entry): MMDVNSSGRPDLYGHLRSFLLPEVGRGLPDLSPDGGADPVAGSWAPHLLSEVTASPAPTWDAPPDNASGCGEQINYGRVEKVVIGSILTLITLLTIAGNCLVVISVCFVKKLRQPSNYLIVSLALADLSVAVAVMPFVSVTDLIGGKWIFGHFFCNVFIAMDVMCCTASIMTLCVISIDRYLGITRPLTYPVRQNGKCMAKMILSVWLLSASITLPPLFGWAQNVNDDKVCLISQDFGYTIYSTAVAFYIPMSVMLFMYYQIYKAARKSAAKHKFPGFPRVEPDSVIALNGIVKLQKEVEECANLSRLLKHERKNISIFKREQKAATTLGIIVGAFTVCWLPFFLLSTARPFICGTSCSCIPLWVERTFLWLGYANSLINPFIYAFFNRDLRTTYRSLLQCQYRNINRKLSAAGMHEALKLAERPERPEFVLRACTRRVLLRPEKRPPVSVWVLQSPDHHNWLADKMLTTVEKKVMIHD

On to `CN1CCc2c(sc3ncn(CCN4CCN(c5ccnc6ccccc56)CC4)c(=O)c23)C1`, for which the Ki in [1] stood at 4.48 µM; in [3], 0.117 µM; in experiment [4], 0.0097 µM; in [6], 5.5 µM; in experiment [10] it was 0.0013 µM; in experiment [12] it was 0.0065 µM. Further, the inhibition constant (Ki) in experiment [14] was 0.023 µM; in [15] it was 0.1181 µM; in experiment [16], over 1 µM. Also, the Activity entry in [2] and in experiment [13] was “Antagonist” in each case. Further, the figures for the IC50 in experiment [4] and in experiment [12] were 0.085 µM and 1.3 µM, respectively. In addition, the Emax came to 9% in experiment [5] and 6% in [9]. Besides, the result in experiment [7], in experiment [8] and in experiment [11] was inactive.
